In patent US20220323406A1, “METHODS AND COMPOSITIONS FOR DIFFERENTIATING STEM CELLS” (Massachusetts Institute of Technology, priority 2019, published 2022):

Columns and labels:
Settings in all cases: primary screen
ENR+CD organoids = experiment: Primary screen: ATP (CellTiter-Glo 3D, CTG) cell number/viability, 2.5-D 384-well ENR+CD organoids;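 also: compounds given at plating and again on day 3 over a 6-day differentiation from ENR+CV stem-cell-enriched precursors, ATP measured on day 6, plate median as control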
[1] = test system: ENR+CD organoids (ISC to Paneth cell differentiation); experiment: Primary screen: CCh-stimulated lysozyme secretion LYZ.S, 2.5-D 384-well ENR+CD organoid differentiation; type: cell-based, mouse
From the text: (§1) High-throughput screening.

[2] = test system: ENR+CD organoids (ISC to Paneth cell differentiation); experiment: Primary screen: basal (non-stimulated) lysozyme secretion LYZ.NS, 2.5-D 384-well ENR+CD organoid differentiation; type: cell-based, mouse
From the text: as §1

Compound | Dose.FC.CTG (log2 fold change) (ENR+CD organoids; dose 0.08 uM) | Z.CTG (standard z score) (ENR+CD organoids; dose 0.08 uM) | Dose.FC.CTG (log2 fold change) (ENR+CD organoids; dose 0.40 uM) | Z.CTG (standard z score) (ENR+CD organoids; dose 0.40 uM) | Dose.FC.CTG (log2 fold change) (ENR+CD organoids; dose 2.00 uM) | Z.CTG (standard z score) (ENR+CD organoids; dose 2.00 uM) | Dose.FC.CTG (log2 fold change) (ENR+CD organoids; dose 10.00 uM) | Z.CTG (standard z score) (ENR+CD organoids; dose 10.00 uM) | Dose.FC.LYZ.S (log2 fold change) ([1]; dose 0.08 uM) | Dose.FC.LYZ.S (log2 fold change) ([1]; dose 0.40 uM) | Dose.FC.LYZ.S (log2 fold change) ([1]; dose 2.00 uM) | Dose.FC.LYZ.S (log2 fold change) ([1]; dose 10.00 uM) | Dose.FC.LYZ.NS (log2 fold change) ([2]; dose 0.08 uM) | Z.LYZ.NS (standard z score) ([2]; dose 0.08 uM) | Dose.FC.LYZ.NS (log2 fold change) ([2]; dose 0.40 uM) | Z.LYZ.NS (standard z score) ([2]; dose 0.40 uM) | Dose.FC.LYZ.NS (log2 fold change) ([2]; dose 2.00 uM) | Z.LYZ.NS (standard z score) ([2]; dose 2.00 uM) | Dose.FC.LYZ.NS (log2 fold change) ([2]; dose 10.00 uM) | Z.LYZ.NS (standard z score) ([2]; dose 10.00 uM)
Clc1ccc(N/N=C(\c2ccccc2)c2ccccn2)nc1 [JIB-04] | 0.254 | 0.607 | 0.108 | 0.258 | 0.092 | 0.219 | −0.181 | −0.433 | 0.203 | 0.084 | −0.056 | −0.085 | 0.178 | 1.549 | 0.030 | 0.264 | 0.006 | 0.048 | −0.153 | −1.330
O=C(Nc1ccccc1)N1CCN(c2nc(-c3ccccc3)ns2)CC1 [JNJ-1661010] | −0.094 | −0.225 | −0.262 | −0.625 | −0.055 | −0.131 | −0.145 | −0.346 | 0.135 | 0.041 | −0.063 | −0.068 | 0.122 | 1.066 | 0.075 | 0.653 | 0.103 | 0.897 | 0.047 | 0.406
Cc1ccc(NCCCc2ccccc2)c(N)c1 [JSH-23] | 0.193 | 0.462 | 0.230 | 0.548 | 0.074 | 0.176 | 0.046 | 0.110 | 0.164 | 0.106 | 0.005 | −0.026 | 0.054 | 0.474 | 0.079 | 0.688 | −0.002 | −0.017 | −0.046 | −0.399
COc1cc(-c2ncn(/C=C\C(=O)OC(C)C)n2)cc(C(F)(F)F)c1 [KPT-185] | 0.116 | 0.277 | 0.104 | 0.248 | −0.995 | −2.377 | −0.855 | −2.041 | −0.015 | 0.220 | −0.322 | −0.153 | −0.006 | −0.049 | 0.097 | 0.846 | −0.209 | −1.820 | −0.085 | −0.744
O=C(/C=C\n1cnc(-c2cc(C(F)(F)F)cc(C(F)(F)F)c2)n1)N1CC(F)(F)C1 [KPT-276] | 0.167 | 0.399 | −0.044 | −0.104 | −0.413 | −0.986 | −0.703 | −1.680 | 0.133 | 0.148 | −0.327 | −0.361 | 0.056 | 0.492 | 0.086 | 0.746 | −0.224 | −1.947 | −0.256 | −2.230
C[C@@H]1CN(CC(=O)Nc2ccc3c(c2)Cc2cccc(-c4cc(=O)cc(N5CCOCC5)o4)c2S3)C[C@H](C)O1 [KU-60019] | 0.114 |  | 0.039 |  | 0.121 |  | −0.522 |  | 0.230 | 0.073 | −0.049 | −0.222 | 0.042 | 0.365 | −0.001 | −0.012 | −0.015 | −0.132 | −0.088 | −0.769
COC(=O)CCSCc1ccc(-c2onc(C)c2NC(=O)OC(C)c2ccccc2Cl)cc1 (centres unmarked) [Ki16198] | −0.011 | −0.026 | −0.108 | −0.258 | −0.033 | −0.078 | 0.022 | 0.052 | 0.027 | 0.031 | −0.015 | −0.037 | 0.005 | 0.044 | −0.009 | −0.076 | 0.060 | 0.519 | −0.103 | −0.899
Cc1noc(-c2ccc(CSCCC(=O)O)cc2)c1NC(=O)OC(C)c1ccccc1Cl (centres unmarked) [Ki16425] | −0.051 | −0.121 | −0.002 | −0.005 | −0.078 | −0.185 | −0.165 | −0.394 | 0.022 | 0.114 | −0.021 | −0.071 | 0.001 | 0.005 | 0.117 | 1.017 | −0.008 | −0.069 | −0.038 | −0.327
O=C(c1cn(Cc2cncn2Cc2ccc(Br)cc2)cc1-c1cccc2ccccc12)N1CCOCC1 [LB42708] | −0.072 | −0.172 | −0.342 | −0.817 | −0.116 | −0.277 | −0.706 | −1.685 | −0.089 | −0.144 | −0.238 | −0.233 | −0.116 | −1.010 | −0.140 | −1.221 | −0.176 | −1.531 | −0.182 | −1.587
Cc1c(C(=O)Nc2ccc(N3C[C@@H](C)O[C@@H](C)C3)nc2)cccc1-c1ccc(OC(F)(F)F)cc1 [LDE225 (NVP-LDE225, Erismodegib)] | 0.107 | 0.255 | 0.067 | 0.159 | 0.229 | 0.546 | −0.001 | −0.002 | 0.095 | 0.074 | 0.002 | 0.006 | 0.085 | 0.739 | 0.101 | 0.881 | 0.011 | 0.094 | 0.049 | 0.426
Cc1cc(Nc2ncc(Cl)c(Nc3ccccc3S(=O)(=O)C(C)C)n2)c(OC(C)C)cc1C1CCNCC1 [LDK378] | 0.135 |  | 0.004 |  | −0.364 |  | −1.292 |  | 0.118 | −0.047 | −0.281 | −0.487 | 0.061 | 0.534 | −0.053 | −0.465 | −0.195 | −1.702 | −0.338 | −2.939
